The record followed here is patent US5475016A, “Sulphonylbenzyl-substituted imidazolypropenoic acid derivatives” (Bayer Aktiengesellschaft, priority 1992, dated 1995).

Assay [1] relates to isolated aorta rings of rabbits, contraction induced by angiotensin II (AII). The assay can be described thus: Inhibition of the vascular contraction in isolated aorta rings of rabbits in vitro, contraction induced by angiotensin II. It counts as cell-based, rabbit. The following applies: Oryctolagus cuniculus, effect at the 3rd = submaximal agonist concentration, read-out: IC50 against contractions induced by: AII. Here is the method: Investigation of the Inhibition of the Contraction Induced with Agonists
Rabbits of both sexes are anaesthetised by a blow to the neck and bled out, or alternatively anaesthetised with Nembutal (about 60-80 mg/kg i.v.) and sacrificed by opening the thorax. The thorax aorta is taken out, freed from adhering connective tissue, divided into 1.5 mm-wide ring segments and these are individually transferred under an initial loading of about 3.5 g to 10-ml organ baths containing 95% O2 /5% CO2 -aerated Krebs-Henseleit nutrient solution, thermostated at 37° C., of the following composition: 119 mmol/l NaCl; 2.5 mmol/l CaCl2 ×2H2 O; 1.2 mmol/l KH2 PO4; 10 mmol/l glucose; 4.8 mmol/l KCl; 1.4 mmol/l MgSO4 ×7 H2 O and 25 mmol/l NaHCO3.
The contractions are detected isometrically by Statham UC2 cells by means of a bridge amplifier (ifd Mulheim or DSM Aalen) and digitised and evaluated by means of an A/D converter (System 570, Keithley, Munich). The implementation of agonist dose-response curves (DRC) is carried out hourly. With each DRC, 3 or 4 individual concentrations are applied to the baths at 4-min intervals. After the end of the DRC and subsequent washing-out cycles (16 times, in each case about 5 sec/min with the abovementioned nutrient solution), a 28-minute rest or incubation phase follows, in the course of which the contractions as a rule reach the starting value again.
The height of, in the normal case, the 3rd DRC is used as a reference quantity for the assessment of the test substance to be investigated in further runs, which test substance in the following DRCs is applied at the start of the incubation time to the baths, in each case in an increasing dose. Each aorta ring is in this case stimulated for the whole day, always with the same agonist.
Agonists and their Standard Concentrations (Administration Volume Per Individual Dose=100 μl):
For the calculation of the IC50 (concentration at which the substance to be investigated causes a 50% inhibition), the effect in each case at the 3rd=submaximal agonist concentration is used as a basis.

Assay [2] relates to Angiotensin II-infused rat. The assay can be described thus: Blood pressure measurements on the angiotensin II-infused rat. It is filed as in vivo, male Wistar rats. The following applies: 0.1 mg/kg p.o.; angiotensin II infusion 0.3 μg/kg/min; average values. As to the method: Blood Pressure Measurements on the Angiotensin II-Infused Rat
Male Wistar rats (Moellegaard, Copenhagen, Denmark) having a body weight of 300-350 g are anaesthetised with thiopental (100 mg/kg i.p.). After tracheotomy, a catheter is inserted in the femoral artery for blood pressure measurement and a catheter for angiotensin II infusion and a catheter for substance administration are inserted in the femoral veins. After administration of the ganglionic blocker pentolinium (5 mg/kg i.v.), the angiotensin II infusion (0.3 μg/kg/min) is started. As soon as the blood pressure values have reached a stable plateau, the test substances are administered either intravenously or orally as a suspension or solution in 0.5% Tylose.

Assay [3] concerns the target T1, Angiotensin II receptor (Bos taurus, UniProt P25104).
T1 construct: from tissue; host or cells: bovine adrenal gland cortex, partially purified membrane fractions
T1 sequence (P25104 1-359): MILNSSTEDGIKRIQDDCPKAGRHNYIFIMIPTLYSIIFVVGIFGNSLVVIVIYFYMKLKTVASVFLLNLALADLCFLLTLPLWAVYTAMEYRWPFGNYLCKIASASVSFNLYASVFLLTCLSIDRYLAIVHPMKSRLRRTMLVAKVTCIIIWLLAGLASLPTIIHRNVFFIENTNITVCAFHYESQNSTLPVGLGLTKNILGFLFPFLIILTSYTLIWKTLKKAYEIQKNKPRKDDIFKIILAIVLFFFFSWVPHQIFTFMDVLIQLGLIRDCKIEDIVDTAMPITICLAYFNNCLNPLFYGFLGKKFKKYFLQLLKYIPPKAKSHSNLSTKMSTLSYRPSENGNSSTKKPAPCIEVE
The assay is described as follows: Interaction with the angiotensin II receptor on membrane fractions of the adrenal gland cortex (cattle), 3H-angiotensin II binding. The conditions noted are these: bovine adrenal gland cortex membranes, 3H-angiotensin II 3-5 nM, 60 min at room temperature. The text has this:
Interaction of the Compounds According to the Invention with the Angiotensin II Receptor on Membrane Fractions of the Adrenal Gland Cortex (Cattle)
Adrenal gland cortices of cattle (AGC), which have been freshly removed and carefully freed from gland medulla, are comminuted in sucrose solution (0.32M) with the aid of an Ultra-Turrax (Janke & Kunkel, Staufen i.B.) to give a coarse membrane homogenate and are partially purified in two centrifugation steps to give membrane fractions. The receptor binding investigations are carried out on partially purified membrane fractions of bovine AGC using radioactive angiotensin II in an assay volume of 0.25 ml, which in detail contains the partially purified membranes (50-80 μg), ^3 H-angiotensin II (3-5 nM), test buffer solution (50 mM tris, pH 7.2, 5 mM MgCl2, 0.25% BSA) and the substances to be investigated. After an incubation time of 60 min at room temperature, the unbound radioactivity of the samples is separated by means of moistened glass fibre filters (Whatman GF/C) and the bound radioactivity is measured […] in a scintillation cocktail after washing the protein with ice-cold buffer solution (50 mM tris/HCl, pH 7.4, 5% PEG 6000). The analysis of the raw data was carried out using computer programs to give Ki or IC50 values (Ki : IC50 values corrected for the radioactivity used; IC50 values: concentration at which the substance to be investigated causes a 50% inhibition of the specific binding of the radioligand).

The subject of assay [4] is smooth muscle cells. The assay is described as follows: Inhibition of the proliferation of smooth muscle cells (3H-thymidine incorporation). It is filed as cell-based, rats or pigs. The following applies: 10^-6 M. Here is the method: Investigation of Inhibition of the Proliferation of Smooth Muscle Cells by the Compounds According to the Invention
To determine the antiproliferative action of the compounds, smooth muscle cells are used which have been obtained from the aortas of rats or pigs by the media explant technique [R. Ross, J. Cell. Biol. 50, 172, 1971]. The cells are inoculated into suitable culture dishes, as a rule 24-hole plates, and cultured at 37° C. in 5% CO2 for 2-3 days in Medium 199 containing 7.5% FCS and 7.5% NCS, 2 mM L-glutamine and 15 mM HEPES, pH 7.4. After this, the cells are synchronised by withdrawal of serum for 2-3 days and then stimulated into growth with AII, serum or other factors. At the same time, test compounds are added. After 16-20 hours, 1 μCi of ^3 H-thymidine is added and the incorporation of this substance into the TCA-precipitable DNA of the cells is determined after a further 4 hours.

In the case of `CCCCc1ncc(C=C(Cc2ccc(F)cc2)C(=O)OC)n1Cc1ccc(S(=O)(=O)N2CCC[C@H]2C(=O)O)cc1Cl` [Example 57], the IC50 in assay [1] is 6 nM.
For the compound `CCCCc1ncc(C=C(CC2CCCC2)C(=O)O)n1Cc1ccc(S(=O)(=O)N2CCC[C@H]2C(=O)O)cc1Cl` [Example 47], the IC50 in assay [1] came out at 4 nM.
Regarding `CCCCc1nc(Cl)c(C=C(CC2CCCC2)C(=O)O)n1Cc1ccc(S(=O)(=O)N2CCC[C@H]2C(=O)O)cc1` [Example 19], in assay [1], the IC50 amounted to 40 nM.
Turning to `CCCCc1ncc(C=C(CC(C)C)C(=O)OCC)n1Cc1ccc(S(=O)(=O)N2CCC[C@H]2C(=O)O)cc1Cl` [Example 41], the “Blood pressure measurement (blood pressure change)” value in assay [2] is given as -11 mm Hg.
With `CCCCc1ncc(C=C(CCC)C(=O)O)n1Cc1ccc(S(=O)(=O)N2CCC[C@H]2C(=O)O)cc1Cl` [Example 39], the IC50 in assay [1] was found to be 4 nM.
As to `CCCCc1ncc(C=C(Cc2cccs2)C(=O)OC)n1Cc1ccc(S(=O)(=O)N2CCC[C@H]2C(=O)O)cc1Cl` [Example 53], in assay [1], the IC50 is 6 nM.
For the compound `CCCCc1nc(Cl)c(C=C(CC2CCCC2)C(=O)O)n1Cc1ccc(S(=O)(=O)N2CCCCC2)cc1` [Example 9], the Ki in assay [3] came out at 100 nM.
On the same count and under the same terms, the value for `CCCCc1nc(Cl)c(C=C(CC2CCCCC2)C(=O)O)n1Cc1ccc(S(=O)(=O)N2CCCCC2)cc1` [Example 10] was 40 nM.
For `CCCCc1nc(Cl)c(C=C(CC2CCCCC2)C(=O)O)n1Cc1ccc(S(=O)(=O)N2CCC[C@H]2C(=O)O)cc1` [Example 23], the “Blood pressure measurement (blood pressure change)” value in assay [2] is listed as -17 mm Hg.
As for `CCCCc1ncc(C=C(CC(C)C)C(=O)O)n1Cc1ccc(S(=O)(=O)N2CCC[C@H]2C(=O)O)cc1Cl` [Example 43], the IC50 in assay [1] worked out at 3 nM. Moreover, the “Blood pressure measurement (blood pressure change)” value in assay [2] was -10 mm Hg.
Regarding `CCCCc1nc(Cl)c(C=C(CC2CCCC2)C(=O)O)n1Cc1ccc(S(=O)(=O)N2CCCCC2C(=O)O)cc1Cl` (stereo not drawn) [Example 20], affinity in assay [3] was put at a Ki of 40 nM.
As for `CCCCc1ncc(C=C(Cc2cccs2)C(=O)O)n1Cc1ccc(S(=O)(=O)N2CCC[C@H]2C(=O)O)cc1Cl` [Example 55], the IC50 in assay [1] was 3 nM.
For the compound `CCCCc1nc(Cl)c(C=C(Cc2cccs2)C(=O)OC)n1Cc1ccc(S(=O)(=O)N2CCCCC2C(=O)OC(C)(C)C)cc1` (stereo not drawn) [Example 30], the Ki in assay [3] was determined as 120 nM.
For `CCCCc1nc(Cl)c(C=C(CC2CCCCC2)C(=O)O)n1Cc1ccc(S(=O)(=O)N2CCC[C@H]2C(=O)O)cc1Cl` [Example 24], in assay [1], the IC50 came out at 1 nM.
Consider `CCCCc1nc(Cl)c(C=C(CC2CCCC2)C(=O)OC)n1Cc1ccc(S(=O)(=O)N2CCCCC2C(=O)O)cc1Cl` (racemic) [Example 2, rac-4-{[2-Butyl-4-chloro-5-(3-cyclopentyl-2-methoxycarbonylprop-1-enyl)imidazolyl]methyl}-3-chlorobenzenesulphonyl-N-(2-carboxy)piperidinide], for which, in assay [1], the IC50 was found to be 11 nM.
In the case of `CCCCc1nc(Cl)c(C=C(Cc2cccs2)C(=O)OC)n1Cc1ccc(S(=O)(=O)N2CCCCC2)cc1` [Example 27], the inhibition at 1 µM in assay [4] amounted to 30%.
On to `CCCCc1nc(Cl)c(C=CC(=O)O)n1Cc1ccc(S(=O)(=O)N2CCCC2)cc1` [Example 6], for which the inhibition at 1 µM in assay [4] was 70%.
